According to patent US4339535A, “Process for preparing antibiotic EM 4940” (E. R. Squibb & Sons, Inc., priority 1980, dated 1982):

Tests used:
[1] = tested on: Shigella sonnei; test: MIC aerobic screen, BA-2 agar; assay type: cell-based; conditions: Table II, additional tests; strain 8449
[2] = solubility; assay type: physicochemical; conditions: acetonitrile
[3] = tested on: Acinetobacter calcoaceticus; test: MIC aerobic screen, BA-2 agar; conditions: Table II, additional tests; strain 8333
[4] = tested on: Enterobacter cloacae; test: MIC aerobic screen, BA-2 agar; conditions: Table II, additional tests; strain 10,459
[5] = tested on: Escherichia coli; test: MIC aerobic screen, BA-2 agar; conditions: Table II, additional tests
[6] = tested on: Klebsiella aerogenes; test: MIC aerobic screen, BA-2 agar; conditions: Table II, additional tests; strain 10,436
[7] = tested on: Klebsiella pneumoniae; test: MIC aerobic screen, BA-2 agar; conditions: Table II, additional tests; strain 11,066
[8] = tested on: Proteus morganii; test: MIC aerobic screen, BA-2 agar; conditions: Table II, additional tests; strain 9774
[9] = tested on: Pseudomonas aeruginosa; test: MIC aerobic screen, BA-2 agar; conditions: Table II, additional tests
[10] = tested on: Salmonella typhimurium; test: MIC aerobic screen, BA-2 agar; conditions: Table II, additional tests; strain 9201
[11] = tested on: Serratia marcescens; test: MIC aerobic screen, BA-2 agar; conditions: Table II, additional tests
[12] = tested on: Staphylococcus aureus; test: MIC aerobic screen, BA-2 agar; conditions: Table II, additional tests
[13] = tested on: Streptococcus faecalis; test: MIC aerobic screen, BA-2 agar; conditions: Table II, additional tests; strain 9011
[14] = tested on: Proteus rettgeri; test: MIC aerobic screen, BA-2 agar; conditions: Table II, additional tests; strain 8217

SMILES: CC1(O)CC(C(N)=O)N=C1c1ncccc1O (stereo not drawn) [EM4940B, 2,4-cis-3,4-dihydro-4-hydroxy-5-(3-hydroxy-2-pyridinyl)-4-methyl-2H-pyrrole-2-carboxamide]
- Minimum Inhibitory Concentration [1]: 50 µg/mL
- solubility of B form relative to A form [2]: more soluble
- Minimum Inhibitory Concentration [3]: 100 µg/mL
- Minimum Inhibitory Concentration [4]: 100 µg/mL
- Minimum Inhibitory Concentration ([5]; strain 10,404): 50 µg/mL
- Minimum Inhibitory Concentration ([5]; strain 10,857): 50 µg/mL
- Minimum Inhibitory Concentration [6]: 50 µg/mL
- Minimum Inhibitory Concentration [7]: 50 µg/mL
- Minimum Inhibitory Concentration [8]: 100 µg/mL
- Minimum Inhibitory Concentration ([9]; strain 8754): 100 µg/mL
- Minimum Inhibitory Concentration ([9]; strain 9330): > 200 µg/mL
- Minimum Inhibitory Concentration ([9]; strain 9545): 12.5 µg/mL
- Minimum Inhibitory Concentration [10]: 50 µg/mL
- Minimum Inhibitory Concentration ([11]; strain 9782): 50 µg/mL
- Minimum Inhibitory Concentration ([11]; strain 11,111): 100 µg/mL
- Minimum Inhibitory Concentration ([12]; strain 2400): > 200 µg/mL
- Minimum Inhibitory Concentration ([12]; strain 2661): > 200 µg/mL
- Minimum Inhibitory Concentration ([12]; strain 10,165): 100 µg/mL
- Minimum Inhibitory Concentration ([12]; strain 11,239): 100 µg/mL
- Minimum Inhibitory Concentration [13]: > 200 µg/mL
- Minimum Inhibitory Concentration [14]: 50 µg/mL
